Laboratory results reported in patent publication US20200061062A1, “INHIBITORS OF HUMAN PHOSPHATIDYLINOSITOL 3-KINASE DELTA” (ICOS Corporation, priority 2000, published 2020).

Columns and labels:
[1] = system: Murine splenocytes (Balb/c); test: B cell proliferation in response to cell surface IgM stimulation; assay type: cell-based; conditions: Mus musculus, Splenocyte; stimulated B cell proliferation; read-out: Mouse BCR Stim (EC50)
Procedure: In the above experiment, the B cells were stimulated using PANSORBIN®. The effect of D-000 on B cell proliferation response when they were stimulated through their cell surface IgM using anti-IgM antibody also was measured. Murine splenocytes (Balb/c) were plated into 96-well microtiter plates at 2×10^5 cells per well in 10% FBS/RPMI. Appropriate dilutions of test inhibitor in complete medium were added to the cells and the plates were incubated for 30-60 minutes prior to the addition of stimulus. Following the preincubation with test inhibitor an F(ab′)2 preparation of goat antibody specific for the μ-chain of mouse IgM was added to the wells at a final concentration of 25 μg/mL. The plates were incubated at 37° C. for 3 days and 1 μCi of [^3H]-thymidine was added to each well for the final four hours of culture. The plates were harvested onto fiber filters washed and the incorporation of radiolabel was determined using a beta counter (Matrix 96, Packard Instrument Co., Downers Grove, Ill.) and expressed as counts per minute (CPM).
(§1) Using the methods described in Examples 3-5, above, compounds of the invention were tested for inhibitory activity and potency in assays of stimulated B and T cell proliferation, neutrophil (PMN) migration, and neutrophil (PMN) elastase release. In Table 4, the values shown are effective concentrations of the compound (EC50; μM). Where no value is given, no assay was performed.

PI3Kδ [2] = biological target: T1, PI3Kδ (Homo sapiens, UniProt O00329, S253N); test: Biochemical assay using 200 μM ATP, Delta;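 further: radiometric filter-binding assay: PI3Kδ transfers ³²P from γ-[³²P]ATP onto PIP2/PS liposomes, counted by scintillation, enzyme-only wells as positive control, no-enzyme wells as background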
Procedure: (§3) PI3Kδ catalyzes a phosphotransfer from γ-[^32P]ATP to PIP2/PS liposomes at the D3′ position of the PIP2 lipid inositol ring. This reaction is MgCl2 dependent and is quenched in high molarity potassium phosphate buffer pH 8.0 containing 30 mM EDTA. […] The reaction products (and all unlabelled products) are transferred to a 96-well, prewetted PVDF filter plate, filtered, and washed in high molarity potassium phosphate. Scintillant is added to the dried wells and the incorporated radioactivity is quantitated.
(§4) This dilution established a final concentration of 200 μM ATP in the reaction volume. The reaction was stopped with 150 μL quench buffer (1.0 M potassium phosphate pH 8.0, 30 mM EDTA). A portion of the quenched solution (180 μL) was then transferred to a PVDF filter plate (Millipore # MAIP NOB prewetted with sequential 200 μL washes of 100% methanol, water, and finally 1.0 M potassium phosphate pH 8.0 wash buffer).
(§5) The PVDF filter plate was aspirated under moderate vacuum (2-5 mm Hg), washed with 5×200 μL of wash buffer, and then dried by aspiration. The filter was subsequently blotted, allowed to air dry completely, and inserted into a Wallac counting cassette with 50 μL of Ecoscint scintillation cocktail added per well.
(§6) Subsequent selectivity assays were done similarly using the same 3× substrate stocks except they contained 0.05 mCi/mL γ[^32P]ATP and 3 mM PIP2. Subsequent selectivity assays also used the same 3× enzyme stocks, except they now contained 3 nM of any given PI3K isoform.
(§7) For all selectivity assays, the test compounds were weighed out and dissolved into 10-50 mM stocks in 100% DMSO (depending on their respective solubilities) and stored at −20° C. […] From these dilutions, 20 μL was added into the assay wells alongside water blanks used for the enzyme (positive) control and the no enzyme (background) control.
(§8) This selectivity protocol is identical to that described above, except the 3× stock ATP concentration was 600 μM.

PI3Kβ [3] = biological target: T2, PI3Kβ (Homo sapiens, UniProt P42338); test: Biochemical assay of PI3K potency and selectivity using 20 μM ATP, Beta; conditions: 20 μM ATP; for Beta/Delta Ratio: ratio of IC50 values, > = hypothetical ratio with 100 μM substituted for the missing IC50; for IC50: read-out: Beta IC50; for remaining activity at 100 µM: read-out: Beta: percent activity remaining at 100 μM, 100 μM compound did not inhibit by at least 50%
T2 construct: His tag (pFastbac HTa vector) (N); FLAG (N); made in house; host or cells: Sf21 insect cells (baculovirus)
Procedure: (§2) Recombinant PI3K heterodimeric complexes consisting of a p110 catalytic subunit and a p85 regulatory subunit were overexpressed using the BAC-TO-BAC® HT baculovirus expression system (GIBCO/BRL), and then purified for use in biochemical assays. The four Class I PI 3-kinases were cloned into baculovirus vectors as follows:
The 3× substrate for the HTS contained 0.6 mM Na2ATP, 0.10 mCi/mL γ-[^32P]ATP (NEN, Pittsburgh, Pa.), 6 μM PIP2/PS liposomes (Avanti Polar Lipids, Inc., […].), in 20 mM HEPES, pH 7.4.

PI3Kβ [4] = biological target: T2, PI3Kβ; test: Biochemical assay using 200 μM ATP, Beta
PI3Kγ = biological target: T3, PI3Kγ (Homo sapiens, UniProt P48736); test: Biochemical assay using 200 μM ATP, Gamma
T3 construct: His tag (pFastbac HTb vector) (N); FLAG (N); made in house; host or cells: Sf21 insect cells (baculovirus)
Procedure: as §3, §4, §5, §6, §7, §8

PI3Kα [5] = biological target: T4, PI3Kα (Homo sapiens, UniProt P42336); test: Biochemical assay using 200 μM ATP, Alpha
T4 construct: His tag (pFastbac HTb vector) (N); FLAG; made in house; host or cells: Sf21 insect cells (baculovirus)

human neutrophils = test: Elastase exocytosis from neutrophils (fMLP-induced); assay type: cell-based; conditions: neutrophil (PMN) elastase release
Procedure: Aliquots (8 mL) of heparinized blood from healthy volunteers were layered on 3 mL cushions of 7.3% FICOLL® (Sigma, St. Louis, Mo.) and 15.4% HYPAQUE® (Sigma) and centrifuged at 900 rpm for 30 min at room temperature in a table top centrifuge (Beckman). The neutrophil-rich band just above the FICOLL®-HYPAQUE® cushion was collected and washed with Hanks' balanced salt solution (HBSS) containing 0.1% gelatin. Residual erythrocytes were removed by hypotonic lysis with 0.2% NaCl. The neutrophil preparation was washed twice with HBSS containing 0.1% gelatin and used immediately.
In addition to superoxide generation, activated neutrophils also respond by releasing several proteases that are responsible for the destruction of tissues and cartilage during inflammation. As an indication of protease release, the effect of D-000 on elastase exocytosis was measured. Elastase exocytosis was quantitated by modification of the procedure described by Ossanna et al. (J Clin Invest, 77:1939-1951 (1986)), as follows. Purified human neutrophils (0.2×10^6) (treated with either DMSO or a serial dilution of D-000 in DMSO) were stimulated with fMLP in PBS containing 0.01 mg/mL cytochalasin B, 1.0 μM sodium azide (NaN3), 5 μg/mL L-methionine and 1 μM fMLP for 90 min at 37° C. in a 96-well plate. At the end of the incubation period, the plate was centrifuged for 5 min at 1000 rpm, and 90 μL of the supernatant was transferred to 10 μL of 10 mM solution of an elastase substrate peptide, MeO-suc-Ala-Ala-Pro-Val-pNA, wherein MeO-suc=methoxy-succinyl; pNA=p-nitroanilide (Calbiochem, San Diego, Calif.). Absorbance at 410 nm was monitored for 2 hr in a 96-well plate reader. To measure the relative amounts of elastase excytosed, all absorbance values were normalized to the values without any inhibitor. […] Inhibition was half-maximal at a concentration of about 2-3 μM D-000.
as §1

PI3Kδ [6] = biological target: T1, PI3Kδ; test: Biochemical assay of PI3K potency and selectivity using 20 μM ATP, Delta; set-up: His tag (pFastbac HTb vector) (N); FLAG; made in house; host or cells: Sf21 insect cells (baculovirus); conditions: 20 μM ATP; read-out: Delta IC50
Excerpt: as §2, with “follows: […]” for “follows:”

PI3Kα [7] = biological target: T4, PI3Kα; test: Biochemical assay of PI3K potency and selectivity using 20 μM ATP, Alpha; conditions: for Alpha/Delta Ratio / IC50: 20 μM ATP; for Alpha/Delta Ratio: ratio of IC50 values, > = hypothetical ratio with 100 μM substituted for the missing IC50; for IC50: read-out: Alpha IC50; for remaining activity at 100 µM: read-out: percent activity remaining at 100 μM, 20 μM ATP, 100 μM compound did not inhibit by at least 50%
Excerpt: as §2, with “follows: […]” for “follows:”

T2 sequence (P42338 whole entry): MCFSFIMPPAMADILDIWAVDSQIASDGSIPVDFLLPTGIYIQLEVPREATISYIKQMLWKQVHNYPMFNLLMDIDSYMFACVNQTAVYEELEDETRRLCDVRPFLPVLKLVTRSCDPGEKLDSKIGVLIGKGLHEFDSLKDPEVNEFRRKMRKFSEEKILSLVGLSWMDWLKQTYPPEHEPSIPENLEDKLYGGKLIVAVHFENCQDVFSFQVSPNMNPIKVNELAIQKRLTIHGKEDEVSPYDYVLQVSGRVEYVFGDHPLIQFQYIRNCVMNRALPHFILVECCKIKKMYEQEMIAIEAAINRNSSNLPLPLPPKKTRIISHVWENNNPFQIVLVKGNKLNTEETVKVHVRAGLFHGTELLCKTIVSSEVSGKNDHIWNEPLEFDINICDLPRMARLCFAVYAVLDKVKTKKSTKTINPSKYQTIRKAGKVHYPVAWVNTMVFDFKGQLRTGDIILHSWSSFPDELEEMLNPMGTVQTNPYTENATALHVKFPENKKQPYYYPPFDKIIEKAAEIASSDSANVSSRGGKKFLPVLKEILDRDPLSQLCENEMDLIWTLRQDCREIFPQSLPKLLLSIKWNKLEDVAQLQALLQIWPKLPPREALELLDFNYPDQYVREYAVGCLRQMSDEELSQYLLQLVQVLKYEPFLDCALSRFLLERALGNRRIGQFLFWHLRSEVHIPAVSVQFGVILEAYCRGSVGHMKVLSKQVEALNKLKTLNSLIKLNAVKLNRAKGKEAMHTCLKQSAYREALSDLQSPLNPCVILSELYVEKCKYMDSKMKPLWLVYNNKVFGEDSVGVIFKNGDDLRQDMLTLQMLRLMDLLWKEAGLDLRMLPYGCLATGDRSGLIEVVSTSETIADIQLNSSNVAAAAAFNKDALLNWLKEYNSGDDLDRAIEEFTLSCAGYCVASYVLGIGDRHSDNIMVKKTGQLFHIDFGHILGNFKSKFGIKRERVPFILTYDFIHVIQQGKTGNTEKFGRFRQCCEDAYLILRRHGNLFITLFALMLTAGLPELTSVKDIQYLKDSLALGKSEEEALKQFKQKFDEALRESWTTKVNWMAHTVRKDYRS
T2 sequence (P27986 whole entry partner): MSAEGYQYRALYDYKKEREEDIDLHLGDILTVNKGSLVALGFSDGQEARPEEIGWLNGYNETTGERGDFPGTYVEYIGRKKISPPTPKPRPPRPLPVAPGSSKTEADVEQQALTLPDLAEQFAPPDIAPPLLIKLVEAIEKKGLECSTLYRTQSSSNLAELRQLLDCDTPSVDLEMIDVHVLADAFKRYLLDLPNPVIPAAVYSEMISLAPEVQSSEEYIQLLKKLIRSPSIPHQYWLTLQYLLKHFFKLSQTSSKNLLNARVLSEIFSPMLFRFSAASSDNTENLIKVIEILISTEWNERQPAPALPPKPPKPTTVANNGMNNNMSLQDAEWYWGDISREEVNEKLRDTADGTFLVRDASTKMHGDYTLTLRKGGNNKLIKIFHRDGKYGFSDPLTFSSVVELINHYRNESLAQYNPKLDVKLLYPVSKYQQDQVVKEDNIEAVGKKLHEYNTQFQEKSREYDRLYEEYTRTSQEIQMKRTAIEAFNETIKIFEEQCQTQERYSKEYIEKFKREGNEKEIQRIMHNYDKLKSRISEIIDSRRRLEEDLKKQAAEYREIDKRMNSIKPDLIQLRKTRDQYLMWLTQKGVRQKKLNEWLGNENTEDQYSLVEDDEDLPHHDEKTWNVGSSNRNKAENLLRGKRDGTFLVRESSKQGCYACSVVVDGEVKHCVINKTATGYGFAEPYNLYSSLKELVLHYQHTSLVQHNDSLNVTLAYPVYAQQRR
T3 sequence (P48736 whole entry): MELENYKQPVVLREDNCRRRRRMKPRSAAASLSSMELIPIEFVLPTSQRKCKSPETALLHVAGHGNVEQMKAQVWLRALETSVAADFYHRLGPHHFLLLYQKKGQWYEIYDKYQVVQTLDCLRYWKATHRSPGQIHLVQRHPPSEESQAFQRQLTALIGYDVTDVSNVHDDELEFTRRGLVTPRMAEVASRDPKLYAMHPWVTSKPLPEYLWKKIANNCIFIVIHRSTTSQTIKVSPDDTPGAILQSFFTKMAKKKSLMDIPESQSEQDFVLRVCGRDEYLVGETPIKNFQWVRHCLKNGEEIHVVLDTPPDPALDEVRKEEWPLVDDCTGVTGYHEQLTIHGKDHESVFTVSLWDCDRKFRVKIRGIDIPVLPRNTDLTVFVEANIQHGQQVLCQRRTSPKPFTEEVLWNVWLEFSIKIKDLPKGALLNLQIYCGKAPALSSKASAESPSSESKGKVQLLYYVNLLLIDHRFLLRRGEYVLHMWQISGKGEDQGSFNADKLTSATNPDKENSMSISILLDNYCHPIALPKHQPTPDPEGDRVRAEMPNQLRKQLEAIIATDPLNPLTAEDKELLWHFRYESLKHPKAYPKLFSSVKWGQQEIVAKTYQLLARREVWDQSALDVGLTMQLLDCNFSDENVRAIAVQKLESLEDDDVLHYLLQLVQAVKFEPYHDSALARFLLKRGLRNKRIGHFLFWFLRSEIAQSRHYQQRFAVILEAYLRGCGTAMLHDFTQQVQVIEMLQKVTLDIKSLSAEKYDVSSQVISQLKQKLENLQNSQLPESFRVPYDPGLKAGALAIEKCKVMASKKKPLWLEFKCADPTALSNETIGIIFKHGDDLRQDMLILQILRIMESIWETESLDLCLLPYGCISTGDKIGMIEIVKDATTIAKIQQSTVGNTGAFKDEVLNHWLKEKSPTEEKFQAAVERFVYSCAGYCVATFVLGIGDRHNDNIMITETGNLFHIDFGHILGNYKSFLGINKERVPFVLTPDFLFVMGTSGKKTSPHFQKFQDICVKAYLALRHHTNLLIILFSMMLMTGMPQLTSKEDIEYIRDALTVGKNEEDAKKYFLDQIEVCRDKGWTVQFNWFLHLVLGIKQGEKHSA
T1 sequence (O00329 whole entry S253N): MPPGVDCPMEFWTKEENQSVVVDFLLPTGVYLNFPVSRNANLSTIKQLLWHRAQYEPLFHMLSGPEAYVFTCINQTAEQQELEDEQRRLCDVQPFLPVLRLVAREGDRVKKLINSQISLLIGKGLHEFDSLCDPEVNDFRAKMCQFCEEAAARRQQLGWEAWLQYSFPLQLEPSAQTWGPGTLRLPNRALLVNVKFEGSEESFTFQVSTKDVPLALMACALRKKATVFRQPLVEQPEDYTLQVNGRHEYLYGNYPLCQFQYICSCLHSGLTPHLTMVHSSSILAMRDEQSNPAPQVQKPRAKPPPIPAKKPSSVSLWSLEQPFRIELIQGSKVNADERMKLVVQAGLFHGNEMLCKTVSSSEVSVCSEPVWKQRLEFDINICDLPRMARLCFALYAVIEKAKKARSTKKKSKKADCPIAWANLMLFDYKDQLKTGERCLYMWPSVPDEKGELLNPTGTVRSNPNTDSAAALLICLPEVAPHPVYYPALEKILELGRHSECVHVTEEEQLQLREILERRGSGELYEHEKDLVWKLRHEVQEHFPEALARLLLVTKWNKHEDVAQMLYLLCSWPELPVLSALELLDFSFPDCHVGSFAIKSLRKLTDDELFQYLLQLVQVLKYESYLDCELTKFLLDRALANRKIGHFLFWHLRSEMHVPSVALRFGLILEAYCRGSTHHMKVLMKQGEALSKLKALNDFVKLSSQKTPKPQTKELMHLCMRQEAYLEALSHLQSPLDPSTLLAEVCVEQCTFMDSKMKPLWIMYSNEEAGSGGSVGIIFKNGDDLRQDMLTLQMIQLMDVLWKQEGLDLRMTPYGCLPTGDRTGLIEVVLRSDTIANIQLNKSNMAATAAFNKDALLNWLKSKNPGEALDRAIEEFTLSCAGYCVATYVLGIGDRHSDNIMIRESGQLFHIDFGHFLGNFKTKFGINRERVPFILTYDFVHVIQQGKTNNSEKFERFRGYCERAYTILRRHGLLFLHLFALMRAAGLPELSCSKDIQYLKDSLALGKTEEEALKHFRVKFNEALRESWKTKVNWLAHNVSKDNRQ
T1 sequence (P27986 whole entry partner): as the sequence (P27986 whole entry partner) above
T4 sequence (P42336 whole entry): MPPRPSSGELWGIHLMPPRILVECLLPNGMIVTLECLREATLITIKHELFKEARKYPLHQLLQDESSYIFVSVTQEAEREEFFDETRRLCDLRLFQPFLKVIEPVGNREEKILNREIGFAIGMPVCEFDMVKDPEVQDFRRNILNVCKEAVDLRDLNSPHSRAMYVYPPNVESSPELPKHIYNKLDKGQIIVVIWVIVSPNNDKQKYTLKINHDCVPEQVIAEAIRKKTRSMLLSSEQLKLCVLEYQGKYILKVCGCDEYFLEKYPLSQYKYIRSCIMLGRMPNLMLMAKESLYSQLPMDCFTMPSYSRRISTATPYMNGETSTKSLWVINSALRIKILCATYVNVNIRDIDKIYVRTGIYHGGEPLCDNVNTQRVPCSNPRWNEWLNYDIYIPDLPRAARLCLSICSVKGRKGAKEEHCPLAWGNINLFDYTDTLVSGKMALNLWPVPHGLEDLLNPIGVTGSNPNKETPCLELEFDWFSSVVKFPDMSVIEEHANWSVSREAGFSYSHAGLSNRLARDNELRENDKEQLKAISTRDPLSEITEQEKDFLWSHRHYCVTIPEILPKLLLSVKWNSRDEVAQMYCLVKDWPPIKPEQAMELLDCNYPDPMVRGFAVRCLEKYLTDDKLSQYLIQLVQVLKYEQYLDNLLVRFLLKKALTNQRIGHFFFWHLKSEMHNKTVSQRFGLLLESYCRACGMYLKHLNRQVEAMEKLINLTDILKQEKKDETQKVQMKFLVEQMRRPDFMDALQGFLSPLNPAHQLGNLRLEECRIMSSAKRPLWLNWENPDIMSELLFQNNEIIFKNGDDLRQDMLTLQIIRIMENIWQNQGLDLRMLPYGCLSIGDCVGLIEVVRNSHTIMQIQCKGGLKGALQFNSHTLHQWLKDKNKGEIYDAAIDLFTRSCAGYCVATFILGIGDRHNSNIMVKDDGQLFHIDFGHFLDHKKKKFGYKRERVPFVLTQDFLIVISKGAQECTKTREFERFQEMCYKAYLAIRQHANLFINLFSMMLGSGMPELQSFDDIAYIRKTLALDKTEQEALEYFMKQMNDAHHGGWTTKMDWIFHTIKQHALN
T4 sequence (P27986 whole entry partner): as the sequence (P27986 whole entry partner) above

IC50 (PI3Kδ [2])	Beta/Delta Ratio (PI3Kβ [3])	IC50 (PI3Kβ [3])	Beta/Delta Ratio (PI3Kβ [4])	IC50 (PI3Kβ [4])	Gamma/Delta Ratio (PI3Kγ)	IC50 (PI3Kγ)	Alpha/Delta Ratio (PI3Kα [5])	EC50 (human neutrophils)	IC50 (PI3Kδ [6])	Alpha/Delta Ratio (PI3Kα [7])	IC50 (PI3Kα [7])	Compound	melting point	EC50 [1]	remaining activity at 100 µM (PI3Kα [7])	remaining activity at 100 µM (PI3Kβ [3])
0.7 µM	50	5 µM	26	18 µM	76	53 µM	200	10.5 µM	0.12 µM	683	82 µM	Nc1ncnc2c1ncn2Cc1nc2cccc(Cl)c2c(=O)n1-c1ccccc1-c1ccccc1 [Compound D-009, 2-(6-Aminopurin-9-ylmethyl)-3-biphenyl-2-yl-5-chloro-3H-quinazolin-4-one]	299.9 to 300.1 °C	0.3 ± 0.2 µM	–	–
4 µM	97	58 µM	26	110 µM	15	60 µM	37	2 µM	0.6 µM	>169	–	O=c1c2cc(F)c(F)cc2nc(CSc2ncnc3[nH]cnc23)n1-c1ccccc1Cl [Compound D-027, 3-(2-Chlorophenyl)-6,7-difluoro-2-(9H-purin-6-ylsulfanylmethyl)-3H-quinazolin-4-one]	207.8 °C	> 2 µM	59%	–
1.2 ± 0.3 µM	74	11 µM	85	103 ± 4 µM	28	34 ± 1 µM	153	–	0.15 µM	131	19 µM	Cc1cccc2nc(CSc3ncnc4[nH]cnc34)n(-c3c(Cl)cccc3Cl)c(=O)c12 [Compound D-034, 3-(2,6-dichlorophenyl)-5-methyl-2-(9H-purin-6-ylsulfanylmethyl)-3H-quinazolin-4-one]	–	0.6 ± 0.4 µM	–	–
–	>13	–	–	–	–	–	–	9 µM	7.6 µM	>13	–	CCOC(=O)Cn1c(CSc2ncnc3[nH]cnc23)nc2cccc(F)c2c1=O [Compound D-045, [5-fluoro-4-oxo-2-(9H-purin-6-ylsulfanylmethyl)-4H-quinazolin-3-yl]acetic acid ethyl ester]	–	–	98%	74%

Compound	IC50 (PI3Kδ [2])	Beta/Delta Ratio (PI3Kβ [3])	IC50 (PI3Kβ [3])	Beta/Delta Ratio (PI3Kβ [4])	IC50 (PI3Kβ [4])	Gamma/Delta Ratio (PI3Kγ)	IC50 (PI3Kγ)	Alpha/Delta Ratio (PI3Kα [5])	EC50 (human neutrophils)	IC50 (PI3Kδ [6])	Alpha/Delta Ratio (PI3Kα [7])	IC50 (PI3Kα [7])	melting point	EC50 [1]	remaining activity at 100 µM (PI3Kα [7])	remaining activity at 100 µM (PI3Kβ [3])
Nc1ncnc2c1ncn2Cc1nc2cccc(Cl)c2c(=O)n1-c1ccccc1F [Compound D-012, 2-(6-Aminopurin-9-ylmethyl)-5-chloro-3-(2-fluorophenyl)-3H-quinazolin-4-one]	1.3 ± 0.4 µM	65	11 µM	83	108 ± 4 µM	38	–	107	0.3 µM	0.17 µM	>588	–	295.6 to 295.8 °C (dec.)	0.3 ± 0.2 µM	69%	–
O=c1c2cc(O)ccc2nc(CSc2ncnc3[nH]cnc23)n1-c1ccccc1Cl [Compound D-024, 3-(2-Chlorophenyl)-6-hydroxy-2-(9H-purin-6-ylsulfanylmethyl)-3H-quinazolin-4-one]	–	>38	–	–	–	–	–	–	2.9 µM	2.6 µM	38	100 µM	186 to 214 °C (dec.)	–	–	76%
O=c1c2ccccc2nc(CSc2ncnc3[nH]cnc23)n1-c1ccccc1 [Compound D-121, 3-phenyl-2-(9H-purin-6-ylsulfanylmethyl)-3H-quinazolin-4-one]	0.9 µM	>211	–	138	–	136	–	158	–	0.48 µM	>211	–	–	1.4 µM	69%	70%
